Data from ChEMBL document CHEMBL1201862, “PubChem BioAssay data set” (2004).
Active and inactive are the calls of the source.

What was measured:
Prothrombin = Prothrombin (Homo sapiens, UniProt P00734); assay: Thrombin 1536 HTS Dose Response Confirmation. [Related pubchem assays: 1046 (Thrombin 1536 HTS; hits were confirmed in this assay)]; type: functional
[1] = Luminescence Cell-Based Dose Confirmation HTS to Identify Activators of 5'UTR Stem-Loop Driven Alpha-Synuclein mRNA Translation in H4 Neuroglioblastoma Cells. [Related pubchem assays: 1829 (Project Summary), 1814 (Primary HTS)]; type: functional
[2] = Luminescence Cell-Based Dose Response HTS to Identify Activators of Luciferase Translation or Activity in H4 […] Cells. [Related pubchem assays: 1829 (Project Summary), 1814 (Primary HTS)]; type: functional
H4 = assay: Luminescence Cell-Based Dose Response HTS to Identify Activators of 5'UTR Stem-Loop Driven Prion Protein mRNA Translation in H4 Neuroglioblastoma Cells. [Related pubchem assays: 1829 (Project Summary), 1814 (Primary HTS)]; type: functional; details: Homo sapiens
Nonstructural protein 1 = Nonstructural protein 1 (Influenza A virus, UniProt Q194T2); type: functional, Influenza A virus (A/California/07/2009(H1N1))
[3] = HEK-293T viability loss after treatment – luminescence, T-cell screen hits, cytotoxicity control for TCR NF-kB inhibitor project, dose response (AID 489026); type: functional, cell-based;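 further: cells exposed to compound about 14 hours before the viability readout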
Aminopeptidase N = target: T1, Aminopeptidase N (Plasmodium falciparum FcB1/Columbia, UniProt O96935); assay: malaria alanyl aminopeptidase activity blockers – biochemical, fluorogenic H-Leu-NHMec substrate, 1536-well (AID 1445); parameters: species or system Plasmodium falciparum 3D7, 3D7
T1 sequence (O96935 whole entry): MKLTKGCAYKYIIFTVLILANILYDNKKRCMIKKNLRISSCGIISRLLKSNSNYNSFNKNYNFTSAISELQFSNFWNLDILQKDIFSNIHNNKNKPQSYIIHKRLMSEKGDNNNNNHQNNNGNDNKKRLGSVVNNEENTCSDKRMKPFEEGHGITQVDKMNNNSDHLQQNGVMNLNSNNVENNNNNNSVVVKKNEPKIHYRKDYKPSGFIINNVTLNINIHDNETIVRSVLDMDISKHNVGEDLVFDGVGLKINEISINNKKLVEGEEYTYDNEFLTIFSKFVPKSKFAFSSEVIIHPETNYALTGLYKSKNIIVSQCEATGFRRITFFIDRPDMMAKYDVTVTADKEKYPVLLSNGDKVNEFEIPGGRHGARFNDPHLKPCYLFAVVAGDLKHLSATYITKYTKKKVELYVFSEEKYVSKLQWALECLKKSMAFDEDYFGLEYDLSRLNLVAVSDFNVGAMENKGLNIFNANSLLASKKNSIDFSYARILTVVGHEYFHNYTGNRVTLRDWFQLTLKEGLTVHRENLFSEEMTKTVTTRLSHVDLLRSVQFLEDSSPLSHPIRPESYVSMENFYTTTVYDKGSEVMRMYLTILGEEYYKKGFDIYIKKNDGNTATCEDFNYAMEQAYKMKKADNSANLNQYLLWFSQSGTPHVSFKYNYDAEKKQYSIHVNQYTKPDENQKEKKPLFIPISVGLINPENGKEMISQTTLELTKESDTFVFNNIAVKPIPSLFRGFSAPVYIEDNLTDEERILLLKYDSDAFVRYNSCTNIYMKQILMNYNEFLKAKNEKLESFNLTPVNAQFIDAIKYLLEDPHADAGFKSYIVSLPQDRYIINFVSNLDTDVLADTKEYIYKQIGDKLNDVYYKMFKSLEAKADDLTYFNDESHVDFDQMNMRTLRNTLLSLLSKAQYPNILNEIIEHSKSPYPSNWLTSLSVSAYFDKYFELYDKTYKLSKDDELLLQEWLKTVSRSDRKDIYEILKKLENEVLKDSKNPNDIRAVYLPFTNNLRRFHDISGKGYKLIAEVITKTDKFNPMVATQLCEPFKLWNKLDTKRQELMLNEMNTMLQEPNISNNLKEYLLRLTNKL

[4] = A Cell Based Secondary Assay To Explore Cytotoxicity of Compounds that Sensitize Mycobacterium Tuberculosis to Beta-Lactam Antibiotics.; type: functional
[5] = target: T2, RNA-binding protein pos-1 (Caenorhabditis elegans, UniProt G5EF15); assay: disruptors of C. elegans POS-1 RNA interaction – biochemical, fluorescence polarization, dose response (AID 1964);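 further: purified POS-1 fused to maltose binding protein made in E. coli; potency of compounds blocking POS-1 binding to fluorescent RNA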
T2 sequence (G5EF15 whole entry): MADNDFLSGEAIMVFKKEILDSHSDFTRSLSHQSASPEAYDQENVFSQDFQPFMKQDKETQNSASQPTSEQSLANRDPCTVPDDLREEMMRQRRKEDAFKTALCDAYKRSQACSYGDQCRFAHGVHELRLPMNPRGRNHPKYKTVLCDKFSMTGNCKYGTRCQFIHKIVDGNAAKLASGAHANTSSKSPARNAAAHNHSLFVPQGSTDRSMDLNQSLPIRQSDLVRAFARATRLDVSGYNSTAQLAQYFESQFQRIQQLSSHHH

[6] = target: T3, Zinc finger protein mex-5 (Caenorhabditis elegans, UniProt Q9XUB2); assay: potency of MEX-5 RNA-binding blockers – biochemical, C. elegans, fluorescence polarization, dose response (AID 1960)
T3 sequence (Q9XUB2 whole entry): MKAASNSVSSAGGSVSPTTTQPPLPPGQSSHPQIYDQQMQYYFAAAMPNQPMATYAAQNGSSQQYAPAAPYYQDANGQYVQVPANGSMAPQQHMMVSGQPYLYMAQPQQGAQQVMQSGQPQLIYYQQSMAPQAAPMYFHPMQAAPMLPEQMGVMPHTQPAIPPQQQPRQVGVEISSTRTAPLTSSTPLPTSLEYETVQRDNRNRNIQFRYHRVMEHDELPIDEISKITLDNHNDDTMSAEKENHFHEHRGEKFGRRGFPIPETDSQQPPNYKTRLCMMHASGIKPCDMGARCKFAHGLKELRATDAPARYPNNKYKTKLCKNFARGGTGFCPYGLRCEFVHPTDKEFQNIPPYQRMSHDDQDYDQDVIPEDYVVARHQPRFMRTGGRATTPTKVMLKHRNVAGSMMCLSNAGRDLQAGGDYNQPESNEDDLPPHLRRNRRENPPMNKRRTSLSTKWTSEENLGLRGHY

[7] = viability of PTEN-deleted HCT116 cells – cell-based, HCT116 PTEN knockout, dose response (AID 1047); type: functional;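 further: HCT116 colon tumor cells with PTEN knocked out; cells exposed to compound for 60 hours before readout; potency for loss of cell viability measured by luminescence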
[8] = viability of HCT116 lacking mutant beta-catenin – cell-based, human colon tumor, dose response (AID 1045); type: functional;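 further: HCT116 colon tumor cells with beta catenin knocked out; cells exposed to compound for 60 hours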
cells = type: functional
[9] = microbe, parasite or virus in culture; type: functional; details: Mycobacterium tuberculosis
[10] = target: T4, Calpain-2 catalytic subunit (Sus scrofa, UniProt P43367); assay: m-calpain protease blockers, concentration series – biochemical, fluorogenic peptide substrate, dose response (AID 1420); type: functional
T4 sequence (P43367 whole entry): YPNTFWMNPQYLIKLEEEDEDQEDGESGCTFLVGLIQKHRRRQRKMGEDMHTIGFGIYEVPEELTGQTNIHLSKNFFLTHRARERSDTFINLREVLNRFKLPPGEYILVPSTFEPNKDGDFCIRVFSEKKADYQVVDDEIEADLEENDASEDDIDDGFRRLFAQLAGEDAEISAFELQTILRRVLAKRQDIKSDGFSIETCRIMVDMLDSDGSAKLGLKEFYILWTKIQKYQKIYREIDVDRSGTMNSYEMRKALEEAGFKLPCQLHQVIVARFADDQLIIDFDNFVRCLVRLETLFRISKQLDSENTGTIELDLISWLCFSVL

INS1 = assay: INS-1E survival protection against cytokine death – cell-based, luminescence, retest, dose response (AID 449756); type: functional; details: Rattus norvegicus;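 further: cell death triggered by IL-1 beta plus TNF-alpha plus IFN-gamma mixture; protective hits raise ATP signal compared with cytokine alone wells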
Paired box protein Pax-8 = Paired box protein Pax-8 (Homo sapiens, UniProt Q06710); assay: PAX8 transcriptional activity inhibition in RMG-I – RMG-I cells, luciferase, cherry-pick, dose response (AID 687027); type: functional, cell-based;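 further: luciferase reporter driven by Pax8 target thyroperoxidase promoter measured by SteadyGlo luminescence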
[11] = OVCAR-3 cell viability loss – plate reader, dry powder samples, PAX8 inhibitor project, dose response (AID 743044); type: functional, cell-based
[12] = target: T5, Long-chain-fatty-acid--AMP ligase FadD28 (Mycobacterium tuberculosis, UniProt P9WQ59); assay: Fluorescence polarization aasay to screen for inhibitors that compete for the binding of FadD28 to a bisubstrate Measured in Biochemical System Using Plate Reader - 2147-01_Inhibitor_Dose_CherryPick_Activity.; type: functional, Mycobacterium tuberculosis H37Rv
T5 sequence (P9WQ59 whole entry): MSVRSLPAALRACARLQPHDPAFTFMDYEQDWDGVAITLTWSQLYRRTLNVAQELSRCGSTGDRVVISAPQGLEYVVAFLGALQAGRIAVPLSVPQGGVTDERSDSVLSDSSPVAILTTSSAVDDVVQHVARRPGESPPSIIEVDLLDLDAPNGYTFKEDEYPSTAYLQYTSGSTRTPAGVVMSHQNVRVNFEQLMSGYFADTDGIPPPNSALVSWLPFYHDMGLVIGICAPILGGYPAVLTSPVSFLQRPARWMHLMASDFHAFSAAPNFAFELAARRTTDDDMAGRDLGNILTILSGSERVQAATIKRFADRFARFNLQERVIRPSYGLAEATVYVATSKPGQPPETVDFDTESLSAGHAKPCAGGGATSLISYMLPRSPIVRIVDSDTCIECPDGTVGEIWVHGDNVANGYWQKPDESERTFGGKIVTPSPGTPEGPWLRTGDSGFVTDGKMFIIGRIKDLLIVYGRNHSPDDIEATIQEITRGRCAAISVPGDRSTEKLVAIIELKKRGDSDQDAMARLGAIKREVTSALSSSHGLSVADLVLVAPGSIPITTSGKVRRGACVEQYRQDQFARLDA

Paired box protein Pax-8, sequence (Q06710 whole entry): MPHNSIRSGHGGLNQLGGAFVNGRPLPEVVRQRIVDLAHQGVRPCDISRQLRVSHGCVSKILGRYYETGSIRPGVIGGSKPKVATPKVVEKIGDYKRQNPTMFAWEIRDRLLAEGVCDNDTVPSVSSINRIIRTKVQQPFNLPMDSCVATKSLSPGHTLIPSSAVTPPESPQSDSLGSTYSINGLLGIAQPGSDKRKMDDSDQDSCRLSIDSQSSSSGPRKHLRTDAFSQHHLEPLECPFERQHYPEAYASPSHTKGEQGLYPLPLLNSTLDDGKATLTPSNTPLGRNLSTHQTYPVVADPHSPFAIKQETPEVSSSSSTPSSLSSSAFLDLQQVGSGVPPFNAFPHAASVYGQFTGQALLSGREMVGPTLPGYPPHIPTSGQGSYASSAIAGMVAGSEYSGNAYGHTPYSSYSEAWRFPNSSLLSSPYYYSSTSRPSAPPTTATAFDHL
Nonstructural protein 1, sequence (Q194T2 whole entry): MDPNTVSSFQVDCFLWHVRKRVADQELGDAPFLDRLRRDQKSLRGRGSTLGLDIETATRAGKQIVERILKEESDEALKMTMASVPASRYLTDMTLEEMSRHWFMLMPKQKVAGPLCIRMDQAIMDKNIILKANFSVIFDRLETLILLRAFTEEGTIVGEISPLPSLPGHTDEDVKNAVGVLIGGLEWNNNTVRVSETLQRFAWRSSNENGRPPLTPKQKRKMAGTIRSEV

CC(C)Nc1nc(C#N)nc(NC(C)C)n1
IC50 (Prothrombin): 23 µM (active)

CCCN1C(=O)/C(=C2\SC(N3CCCCC3)=NC2=O)c2ccccc21
EC50 [1]: 15.2 µM (active)
EC50 [2]: 64.2 µM (active)
EC50 (H4): > 120 µM (not active)
IC50 (Nonstructural protein 1): 28.5 µM (active)

COc1cc(-c2noc(C)c2-c2ccc3[nH]ccc3c2)cc(OC)c1OC
IC50 [3]: 32.5 µM (inactive)

CCCC(C)C1(CC)C(=O)N=C(Nc2ccccc2OC)NC1=O (stereo unspecified)
IC50 (Aminopeptidase N): 52.1 µM (active)

Cc1ccc(OCc2nnc(S)n2N)cc1C
IC50 (Prothrombin): > 50 µM (not active)

COc1ccc(/C=C2\SC(=S)N(C(C(=O)O)c3ccccc3)C2=O)c(OC)c1 (stereo unspecified)
IC50 (Aminopeptidase N): 21.9 µM (active)

COC(=O)Cc1ccc(NC(=S)N2CCN(c3ccc(F)cc3)CC2)cc1
IC50 (Prothrombin): > 50 µM (not active)

Nc1nc(-c2cccnc2)nn1C(=O)c1ccc(Cl)cc1
IC50 (Prothrombin): 0.781 µM (active)

COc1ccc(-c2cc(-c3ccc(OC)cc3)nc(-c3ccc4c(c3)NC(=O)CO4)c2)cc1
CC50 [4]: 38.7 µM (active)

CN(C)CCCN(C(=O)/C=C/c1cccs1)c1nc2ccc(F)cc2s1
EC50 [5]: > 300 µM (not active)
CC50 [4]: 12.4 µM (active)
EC50 [6]: > 300 µM (not active)

O=C(c1cccnc1)n1nc(-c2ccco2)nc1NCc1cccs1
IC50 (Prothrombin): 0.001 µM (active)

COc1cccc(NS(=O)(=O)c2ccc3ncc(C(=O)NCCC(C)C)c(O)c3c2)c1
CC50 [4]: > 40 µM (active)

O=C(Nc1ccc2oc(-c3ccc(Cl)c(Cl)c3)nc2c1)c1nc[nH]n1
CC50 [4]: 16.4 µM (active)
EC50 [7]: 3.34 µM (active)
EC50 [8]: 4.31 µM (active)

O=C(Nc1nc2ccccc2n1CCN1CCCC1)C1CCCCC1
CC50 [4]: > 40 µM (active)
IC50 (cells): 46.9 µM (active)

CCCCCCCNC1=CC(=O)CC(c2ccccc2)C1 (stereo unspecified)
CC50 [9]: 38 µM (active)
IC50 [10]: 9.58 µM (not active)
AC50 (INS1): 6.36 µM (active)

CC(C)NC(=O)N(C)C[C@H]1OCCCC[C@H](C)Oc2ccc(NC(=O)Nc3ccc(C(F)(F)F)cc3)cc2C(=O)N([C@H](C)CO)C[C@@H]1C
AC50 (Paired box protein Pax-8): 12.5 µM (active)
AC50 [11]: 53.3 µM (active)

COc1cc(/C=N/NC(=O)C(Cc2c[nH]c3ccccc23)NC(=O)OCC(C)C)cc([N+](=O)[O-])c1O (stereo unspecified)
IC50 (Aminopeptidase N): 16.7 µM (active)
AC50 [12]: 65.6 µM (active)

CCN(CC)CCNC(=O)c1ccc(NC(=O)c2cn(-c3ccccc3)nc2-c2cccs2)cc1
CC50 [9]: 7.35 µM (active)
AC50 (INS1): 6.79 µM (active)
